Experimental data from patent US8211912B2, “Compositions and methods for effecting NAD+ levels using a nicotinamide phosphoribosyl tranferase inhibitor” (Gemin X Pharmaceuticals Canada, priority 2007, dated 2012).

Experiments:
[1] = system: Human Fibrosarcoma HT1080 cancer cells; test: Xenograft of a cancer deficient in nicotinic acid pathway; format: in vivo, mice
Description: Human Fibrosarcoma HT1080 cancer cells were maintained in RPMI (Hyclone, Utah, USA) supplemented with 10% inactivated fetal bovine serum (Bio-Whittaker, Md., USA) and 1% penicillin-streptomycin-L-Glutamine (Gibco; NY, USA), under 5% CO2 at 37° C. HT1080 cells were transplanted subcutaneously into the flank of female mice. Each mouse was inoculated with a suspension of 1×10^6 tumors cells per 100 μl in PBS on day zero.
Treatments started on day fifteen after HT1080 cells transplantation. […] The control group was treated with vehicle (0.9% NaCl) alone for 104 hours. Treatments were conducted using Lomir External pump—Model 220 with a flow rate of 50 μL/hr (˜2.5 mL/kg/hr) and equipped with 1 cc syringes for treated groups or equipped with 10 cc syringes for the control group. Compound 2 was prepared fresh for dosing and formulated in a vehicle solution of 10 mM citrate buffer at pH 4.8.
Observation continued for 22 days after initial tumor implantation.

IMR32 (neuroblastoma) = settings: 0.01, 0.1 and 1 mM nicotinic acid
GCT MFH histiocytoma = settings: 0.01, 0.1 and 1 mM nicotinic acid
MG-63 osteosarcoma = settings: 0.01, 0.1 and 1 mM nicotinic acid
HT1080 fibrosarcoma = settings: 0.01, 0.1 and 1 mM nicotinic acid
[2] = system: SW982 synovial sarcoma cell line; settings: 0.01, 0.1 and 1 mM nicotinic acid
Description: In FIGS. 10 and 11, fraction of cell survived is indicated by the vertical axis (labeled as “% control”).

A204 rhabdomyosarcoma = settings: 0.01, 0.1 and 1 mM nicotinic acid
[3] = system: colon cancer cell line Colo320DM; settings: the only one of fourteen other carcinomas
SW1353 chondrosarcoma = settings: 0.01, 0.1 and 1 mM nicotinic acid
T98G (glioblastoma) = settings: 0.01, 0.1 and 1 mM nicotinic acid
[4] = system: human multiple myeloma IM-9 cancer cells; test: Xenograft of a cancer not deficient in nicotinic acid pathway; format: in vivo, CB17 SCID mice; settings: nicotinic acid 120 mg/kg 4 hours infusion after Compound 2 150 mg/kg
Description: Human multiple myeloma IM-9 cancer cells were maintained in RPMI (Hyclone, Utah, USA) supplemented with 10% inactivated fetal bovine serum (Bio-Whittaker; MD, USA) and 1% penicillin-streptomycin-L-Glutamine (Gibco; NY, USA), under 5% CO2 at 37° C. IM-9 cells were transplanted subcutaneously into the flank of female mice. Each mouse was inoculated with a suspension of 10×10^6 tumors cells per 100 μl in PBS on day zero.
Treatments started on day eight after IM-9 cells transplantation. […] The control group was treated with vehicle (0.9% NaCl) alone for 104 hours. […] Compound 2 was prepared fresh for dosing and formulated in a vehicle solution of 10 mM citrate buffer at pH 4.8.
Observation continued for 23 days after initial tumor implantation.

[5] = system: Hs821.T giant cell sarcome; settings: 0.01, 0.1 and 1 mM nicotinic acid
[6] = system: NF-κB regulated gene expression in HeLa cells; settings: Compound 1 100 nM, 10 mM nicotinic acid, 24 hrs then 4 hours TNFα
Description: (§1) Viability was measured after 72 hours by ViaLight assay (assessing ATP levels). […] Each bar is the mean±SD of quadruplicate samples. Each figure is representative of two independent experiments.

[7] = system: NAD^+ levels in HeLa cells; settings: Compound 1 100 nM, 10 mM nicotinic acid
Description: as §1

U-2OS osteosarcome = settings: 0.01, 0.1 and 1 mM nicotinic acid

## O=C(O)c1cccnc1 [nicotinic acid]
Cancer cell lines; 13 sarcoma cell lines, Compound 1 with nicotinic acid
  Percentage of sarcomas not being rescued: 60%
Cancer cell lines; Compound 1 induced cytotoxicity
  Neuroblastoma and glioblastoma cell lines not rescued by nicotinic acid: Two out of three
Cancer cell lines; out of 13 sarcoma cell lines tested, Compound 1 with 0.01, 0.1 and 1 mM nicotinic acid
  Number of sarcoma cell lines not rescued by nicotinic acid: 8
[1]; niacin 120 mg/kg 4 hours after Compound 2 150 mg/kg
  Effect of niacin on the anti-tumor activity of Compound 2: unable to inhibit the anti-tumor activity of Compound 2
[1]; niacin 120 mg/kg 4 hours after Compound 2 650 mg/kg
  Effect of niacin on the anti-tumor activity of Compound 2: did not inhibit the anti-tumor activity of Compound 2
IMR32 (neuroblastoma)
  Rescue from Compound 1 induced cytotoxicity by nicotinic acid: not rescued
GCT MFH histiocytoma
  Rescue from Compound 1 induced cytotoxicity by nicotinic acid: not rescued
MG-63 osteosarcoma
  Rescue from Compound 1 induced cytotoxicity by nicotinic acid: not rescued
HT1080 fibrosarcoma
  Rescue from Compound 1 induced cytotoxicity by nicotinic acid: not rescued
[2]
  Rescue from Compound 1 induced cytotoxicity by nicotinic acid: rescue
A204 rhabdomyosarcoma
  Rescue from Compound 1 induced cytotoxicity by nicotinic acid: not rescued
[3]
  Rescue from Compound 1 induced cytotoxicity by nicotinic acid: not rescued
SW1353 chondrosarcoma
  Rescue from Compound 1 induced cytotoxicity by nicotinic acid: not rescued
T98G (glioblastoma)
  Rescue from Compound 1 induced cytotoxicity by nicotinic acid: not rescued
[4]
  Effect of nicotinic acid on the anti-tumor activity of Compound 2: able to inhibit the anti-tumor activity of Compound 2
[5]
  Rescue from Compound 1 induced cytotoxicity by nicotinic acid: not rescued
[6]
  Rescue from NF-κB inhibition: can rescue
[7]
  Rescue from decline in NAD^+ levels: can rescue
U-2OS osteosarcome
  Rescue from Compound 1 induced cytotoxicity by nicotinic acid: not rescued
